# System: not listed separately
# Experiment: DRUGMATRIX: Sodium/nucleoside co-transporter radioligand binding (ligand: nitrobenzylthioinosine)
# Type: cell membranes, Cavia porcellus, Dunkin-Hartley, Cerebral cortex, Membrane
# Conditions: Not Active = under 50% inhibition at 10 µM
SMILES,IC50,Ki
CCOc1nc2cccc(C(=O)O)c2n1Cc1ccc(-c2ccccc2-c2nnn[nH]2)cc1,Not Active,Not Active
O=C(O)CCCc1cccs1,Not Active,Not Active
O=C(c1ccccc1F)N1CCC(Cc2ccccc2)CC1,Not Active,Not Active
NC(=O)c1cccc(N)c1 [3-AMINOBENZAMIDE],Not Active,Not Active
CC(=O)Oc1ccccc1C(=O)O [ASPIRIN],Not Active,Not Active
CC(=O)OC[C@H]1O[C@@H](n2ncc(=O)[nH]c2=O)[C@H](OC(C)=O)[C@@H]1OC(C)=O [AZARIBINE],Not Active,Not Active
COc1cc(OC)c(C(=O)CCCN2CCCC2)c(OC)c1 [BUFLOMEDIL],Not Active,Not Active
CNC1=Nc2ccc(Cl)cc2C(c2ccccc2)=[N+]([O-])C1 [CHLORDIAZEPOXIDE],Not Active,Not Active
CC(C)NCC(O)c1ccccc1Cl (stereo unspecified) [CLORPRENALINE],Not Active,Not Active
CN1CCN(C(c2ccccc2)c2ccccc2)CC1 [CYCLIZINE],Not Active,Not Active

# Molecular target: T1, Alpha-1B adrenergic receptor (Rattus norvegicus, UniProt P15823)
# T1 sequence (P15823 whole entry): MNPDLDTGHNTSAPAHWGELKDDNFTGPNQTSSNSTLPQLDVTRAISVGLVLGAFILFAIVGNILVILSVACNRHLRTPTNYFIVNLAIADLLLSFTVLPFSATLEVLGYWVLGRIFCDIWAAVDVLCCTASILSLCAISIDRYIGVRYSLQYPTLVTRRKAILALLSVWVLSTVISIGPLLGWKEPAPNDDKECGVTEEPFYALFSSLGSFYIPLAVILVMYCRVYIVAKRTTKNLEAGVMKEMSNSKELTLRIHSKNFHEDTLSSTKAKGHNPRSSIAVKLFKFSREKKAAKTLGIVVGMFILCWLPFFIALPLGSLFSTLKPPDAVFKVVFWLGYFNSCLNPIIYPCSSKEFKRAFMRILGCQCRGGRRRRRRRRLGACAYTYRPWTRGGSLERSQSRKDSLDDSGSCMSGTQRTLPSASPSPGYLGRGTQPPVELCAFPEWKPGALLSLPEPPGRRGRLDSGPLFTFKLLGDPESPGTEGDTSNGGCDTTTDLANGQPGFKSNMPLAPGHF
# Experiment: DRUGMATRIX: Alpha-1B adrenergic receptor radioligand binding (ligand: prazosin)
# Type: cell membranes, Wistar, Liver, Membrane
# Conditions: Not Active = under 50% inhibition at 10 µM
row,SMILES,IC50
1,CCOc1nc2cccc(C(=O)O)c2n1Cc1ccc(-c2ccccc2-c2nnn[nH]2)cc1,Not Active
2,O=C(O)CCCc1cccs1,Not Active
3,O=C(c1ccccc1F)N1CCC(Cc2ccccc2)CC1,Not Active
4,NC(=O)c1cccc(N)c1 [3-AMINOBENZAMIDE],Not Active
5,CC(=O)Oc1ccccc1C(=O)O [ASPIRIN],Not Active
6,CC(=O)OC[C@H]1O[C@@H](n2ncc(=O)[nH]c2=O)[C@H](OC(C)=O)[C@@H]1OC(C)=O [AZARIBINE],Not Active
7,COc1cc(OC)c(C(=O)CCCN2CCCC2)c(OC)c1 [BUFLOMEDIL],Not Active
8,CNC1=Nc2ccc(Cl)cc2C(c2ccccc2)=[N+]([O-])C1 [CHLORDIAZEPOXIDE],Not Active
9,CC(C)NCC(O)c1ccccc1Cl (stereo unspecified) [CLORPRENALINE],Not Active

# Same assay, conditions: Not Active = under 50% inhibition at 10 µM; read-out: IC50
row,SMILES,IC50 [µM]
1,CN1CCN(C(c2ccccc2)c2ccccc2)CC1 [CYCLIZINE],2.49

# Same assay, conditions: Not Active = under 50% inhibition at 10 µM; read-out: Ki
row,SMILES,Ki [µM]
1,CN1CCN(C(c2ccccc2)c2ccccc2)CC1 [CYCLIZINE],1.38

# Molecular target: Aldo-keto reductase family 1 member B1 (Rattus norvegicus, UniProt P07943);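 further: inhibition of aldose reductase enzyme activity, measured with DL-glyceraldehyde as the substrate; in other assays of this panel Not Active means under 50% inhibition at 10 µM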
# Experiment: biochemical
# Type: tissue-based, Lens of camera-type eye
# Conditions: not given
row,SMILES,IC50
1,CCOc1nc2cccc(C(=O)O)c2n1Cc1ccc(-c2ccccc2-c2nnn[nH]2)cc1,Not Active
2,O=C(O)CCCc1cccs1,Not Active
3,O=C(c1ccccc1F)N1CCC(Cc2ccccc2)CC1,Not Active
4,NC(=O)c1cccc(N)c1 [3-AMINOBENZAMIDE],Not Active
5,CC(=O)Oc1ccccc1C(=O)O [ASPIRIN],Not Active
6,CC(=O)OC[C@H]1O[C@@H](n2ncc(=O)[nH]c2=O)[C@H](OC(C)=O)[C@@H]1OC(C)=O [AZARIBINE],Not Active
7,COc1cc(OC)c(C(=O)CCCN2CCCC2)c(OC)c1 [BUFLOMEDIL],Not Active
8,CNC1=Nc2ccc(Cl)cc2C(c2ccccc2)=[N+]([O-])C1 [CHLORDIAZEPOXIDE],Not Active
9,CC(C)NCC(O)c1ccccc1Cl (stereo unspecified) [CLORPRENALINE],Not Active
10,CN1CCN(C(c2ccccc2)c2ccccc2)CC1 [CYCLIZINE],Not Active

# Molecular target: T2, Type-2 angiotensin II receptor (Homo sapiens, UniProt P50052); further: in other assays of this panel Not Active means under 50% inhibition at 10 µM
# T2 sequence (P50052 whole entry): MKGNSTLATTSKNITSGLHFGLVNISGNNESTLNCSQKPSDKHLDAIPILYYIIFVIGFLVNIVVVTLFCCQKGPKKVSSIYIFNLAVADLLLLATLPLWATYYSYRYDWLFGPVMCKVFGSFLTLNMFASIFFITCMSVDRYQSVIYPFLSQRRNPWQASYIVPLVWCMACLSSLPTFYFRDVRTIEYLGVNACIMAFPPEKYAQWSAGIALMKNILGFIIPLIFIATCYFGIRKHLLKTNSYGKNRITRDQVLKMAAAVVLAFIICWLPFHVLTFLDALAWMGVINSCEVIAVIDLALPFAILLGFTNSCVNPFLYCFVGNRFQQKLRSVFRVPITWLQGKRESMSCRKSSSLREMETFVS
# Experiment: biochemical
# Type: cell-based, CHO-K1
# Conditions: cho-k1
row,SMILES,IC50
1,CCOc1nc2cccc(C(=O)O)c2n1Cc1ccc(-c2ccccc2-c2nnn[nH]2)cc1,Not Active
2,O=C(O)CCCc1cccs1,Not Active
3,O=C(c1ccccc1F)N1CCC(Cc2ccccc2)CC1,Not Active
4,NC(=O)c1cccc(N)c1 [3-AMINOBENZAMIDE],Not Active
5,CC(=O)Oc1ccccc1C(=O)O [ASPIRIN],Not Active
6,CC(=O)OC[C@H]1O[C@@H](n2ncc(=O)[nH]c2=O)[C@H](OC(C)=O)[C@@H]1OC(C)=O [AZARIBINE],Not Active
7,COc1cc(OC)c(C(=O)CCCN2CCCC2)c(OC)c1 [BUFLOMEDIL],Not Active
8,CNC1=Nc2ccc(Cl)cc2C(c2ccccc2)=[N+]([O-])C1 [CHLORDIAZEPOXIDE],Not Active
9,CC(C)NCC(O)c1ccccc1Cl (stereo unspecified) [CLORPRENALINE],Not Active
10,CN1CCN(C(c2ccccc2)c2ccccc2)CC1 [CYCLIZINE],Not Active

# Molecular target: T3, Thromboxane-A synthase (Homo sapiens, UniProt P24557);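 further: enzyme inhibition assay with PGH2 supplied as substrate; in other assays of this panel Not Active means under 50% inhibition at 10 µM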
# T3 sequence (P24557 whole entry): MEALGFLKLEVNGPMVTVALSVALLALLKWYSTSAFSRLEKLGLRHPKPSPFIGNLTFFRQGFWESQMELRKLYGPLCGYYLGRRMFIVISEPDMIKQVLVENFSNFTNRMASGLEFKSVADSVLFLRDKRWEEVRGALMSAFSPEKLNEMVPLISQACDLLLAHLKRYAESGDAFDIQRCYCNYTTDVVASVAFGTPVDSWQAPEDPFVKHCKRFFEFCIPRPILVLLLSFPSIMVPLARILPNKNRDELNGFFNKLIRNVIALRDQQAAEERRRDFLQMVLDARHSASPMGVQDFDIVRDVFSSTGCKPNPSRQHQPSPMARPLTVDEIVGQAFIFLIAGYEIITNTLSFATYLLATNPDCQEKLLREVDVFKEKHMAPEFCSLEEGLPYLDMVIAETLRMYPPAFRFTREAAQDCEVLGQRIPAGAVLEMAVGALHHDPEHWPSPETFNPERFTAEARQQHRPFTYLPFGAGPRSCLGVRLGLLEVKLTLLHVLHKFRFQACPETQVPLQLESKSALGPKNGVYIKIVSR
# Experiment: biochemical
# Type: tissue-based, Platelet
# Conditions: platelet
row,SMILES,IC50
1,O=C(O)CCCc1cccs1,Not Active
2,O=C(c1ccccc1F)N1CCC(Cc2ccccc2)CC1,Not Active
3,NC(=O)c1cccc(N)c1 [3-AMINOBENZAMIDE],Not Active
4,CC(=O)Oc1ccccc1C(=O)O [ASPIRIN],Not Active
5,CC(=O)OC[C@H]1O[C@@H](n2ncc(=O)[nH]c2=O)[C@H](OC(C)=O)[C@@H]1OC(C)=O [AZARIBINE],Not Active
6,COc1cc(OC)c(C(=O)CCCN2CCCC2)c(OC)c1 [BUFLOMEDIL],Not Active
7,CNC1=Nc2ccc(Cl)cc2C(c2ccccc2)=[N+]([O-])C1 [CHLORDIAZEPOXIDE],Not Active
8,CC(C)NCC(O)c1ccccc1Cl (stereo unspecified) [CLORPRENALINE],Not Active
9,CN1CCN(C(c2ccccc2)c2ccccc2)CC1 [CYCLIZINE],Not Active

# Same assay, conditions: read-out: IC50
row,SMILES,IC50 [µM]
1,CCOc1nc2cccc(C(=O)O)c2n1Cc1ccc(-c2ccccc2-c2nnn[nH]2)cc1,3.06

# Molecular target: 5-hydroxytryptamine receptor 1B (Rattus norvegicus, UniProt P28564); further: in other assays of this panel Not Active means under 50% inhibition at 10 µM
# Sequence (P28564 whole entry): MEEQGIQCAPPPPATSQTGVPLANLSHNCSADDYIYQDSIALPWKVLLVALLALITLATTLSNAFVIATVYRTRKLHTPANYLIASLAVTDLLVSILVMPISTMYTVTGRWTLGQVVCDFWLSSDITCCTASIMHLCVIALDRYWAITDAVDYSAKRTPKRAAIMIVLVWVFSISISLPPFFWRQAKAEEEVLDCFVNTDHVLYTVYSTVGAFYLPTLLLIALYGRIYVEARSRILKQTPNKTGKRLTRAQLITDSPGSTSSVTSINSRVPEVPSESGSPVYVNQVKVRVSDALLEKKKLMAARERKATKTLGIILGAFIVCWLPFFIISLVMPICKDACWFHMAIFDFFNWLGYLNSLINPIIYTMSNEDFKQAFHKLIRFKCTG
# Experiment: not given
# Type: cell membranes, Wistar, Cerebral cortex, Membrane
# Conditions: not given
row,SMILES,IC50
1,CCOc1nc2cccc(C(=O)O)c2n1Cc1ccc(-c2ccccc2-c2nnn[nH]2)cc1,Not Active
2,O=C(O)CCCc1cccs1,Not Active
3,O=C(c1ccccc1F)N1CCC(Cc2ccccc2)CC1,Not Active
4,NC(=O)c1cccc(N)c1 [3-AMINOBENZAMIDE],Not Active
5,CC(=O)Oc1ccccc1C(=O)O [ASPIRIN],Not Active
6,CC(=O)OC[C@H]1O[C@@H](n2ncc(=O)[nH]c2=O)[C@H](OC(C)=O)[C@@H]1OC(C)=O [AZARIBINE],Not Active
7,COc1cc(OC)c(C(=O)CCCN2CCCC2)c(OC)c1 [BUFLOMEDIL],Not Active
8,CNC1=Nc2ccc(Cl)cc2C(c2ccccc2)=[N+]([O-])C1 [CHLORDIAZEPOXIDE],Not Active
9,CC(C)NCC(O)c1ccccc1Cl (stereo unspecified) [CLORPRENALINE],Not Active
10,CN1CCN(C(c2ccccc2)c2ccccc2)CC1 [CYCLIZINE],Not Active

# Molecular target: T4, Androgen receptor (Rattus norvegicus, UniProt P15207); further: in other assays of this panel Not Active means under 50% inhibition at 10 µM
# T4 sequence (P15207 whole entry): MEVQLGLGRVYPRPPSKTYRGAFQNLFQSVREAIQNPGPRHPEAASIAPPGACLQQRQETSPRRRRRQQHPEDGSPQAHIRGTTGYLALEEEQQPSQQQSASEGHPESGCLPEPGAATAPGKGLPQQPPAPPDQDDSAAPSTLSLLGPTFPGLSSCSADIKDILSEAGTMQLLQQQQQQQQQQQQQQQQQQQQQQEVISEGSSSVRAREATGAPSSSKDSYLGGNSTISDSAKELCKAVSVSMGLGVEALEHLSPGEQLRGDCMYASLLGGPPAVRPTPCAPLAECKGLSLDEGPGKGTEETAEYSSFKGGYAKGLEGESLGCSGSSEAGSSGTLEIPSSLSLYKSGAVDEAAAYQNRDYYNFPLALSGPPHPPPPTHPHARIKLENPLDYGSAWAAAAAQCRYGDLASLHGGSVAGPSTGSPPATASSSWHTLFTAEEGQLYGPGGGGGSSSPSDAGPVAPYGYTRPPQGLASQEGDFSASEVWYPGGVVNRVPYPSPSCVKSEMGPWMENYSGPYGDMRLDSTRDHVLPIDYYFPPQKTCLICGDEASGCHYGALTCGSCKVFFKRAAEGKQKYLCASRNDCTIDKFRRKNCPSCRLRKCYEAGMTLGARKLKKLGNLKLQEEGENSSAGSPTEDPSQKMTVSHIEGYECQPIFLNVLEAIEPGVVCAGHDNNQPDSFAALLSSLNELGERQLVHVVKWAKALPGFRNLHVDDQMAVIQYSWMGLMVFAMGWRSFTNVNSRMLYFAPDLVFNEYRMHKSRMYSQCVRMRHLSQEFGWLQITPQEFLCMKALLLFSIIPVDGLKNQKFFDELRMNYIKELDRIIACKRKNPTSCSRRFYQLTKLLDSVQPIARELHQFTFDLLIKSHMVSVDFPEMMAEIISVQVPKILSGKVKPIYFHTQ
# Experiment: not given
# Conditions: not given
row,SMILES,IC50
1,CCOc1nc2cccc(C(=O)O)c2n1Cc1ccc(-c2ccccc2-c2nnn[nH]2)cc1,Not Active
2,O=C(O)CCCc1cccs1,Not Active
3,O=C(c1ccccc1F)N1CCC(Cc2ccccc2)CC1,Not Active
4,NC(=O)c1cccc(N)c1 [3-AMINOBENZAMIDE],Not Active
5,CC(=O)Oc1ccccc1C(=O)O [ASPIRIN],Not Active
6,CC(=O)OC[C@H]1O[C@@H](n2ncc(=O)[nH]c2=O)[C@H](OC(C)=O)[C@@H]1OC(C)=O [AZARIBINE],Not Active
7,COc1cc(OC)c(C(=O)CCCN2CCCC2)c(OC)c1 [BUFLOMEDIL],Not Active
8,CNC1=Nc2ccc(Cl)cc2C(c2ccccc2)=[N+]([O-])C1 [CHLORDIAZEPOXIDE],Not Active
9,CC(C)NCC(O)c1ccccc1Cl (stereo unspecified) [CLORPRENALINE],Not Active
10,CN1CCN(C(c2ccccc2)c2ccccc2)CC1 [CYCLIZINE],Not Active

# — ChEMBL document CHEMBL1909046, “DrugMatrix in vitro pharmacology data”
